Values quoted from earlier work as cited in patent publication US20130202654A1, “Topical Foam Composition” (priority 2009, published 2013).
Like-named read-outs stand apart in the source and are kept apart here.

Assays:
[1] = not given; remark: listed apart in the source
[2] = not given; remark: listed apart in the source

- solubility in alcohol, ethyl acetate, chloroform and toluene (alcohol, ethyl acetate, chloroform, toluene): soluble
- solubility in alcohols (alcohols): readily soluble
- solubility in water: water insoluble
- solubility in water (listed as rifaximin): virtually insoluble in water
- Tmax ([1]; in vivo): 0.8 h
- half-life ([1]; in vivo): 1.8 h
- Cmax ([1]; low systemic absorption): 3.4 ng/mL
- bound to plasma proteins [2]: 67.5%
Structure (SMILES): CO[C@H]1/C=C/O[C@@]2(C)Oc3c(C)c(O)c4c(O)c(c5c(nc6cc(C)ccn65)c4c3C2=O)NC(=O)/C(C)=C\C=C\[C@H](C)[C@H](O)[C@@H](C)[C@@H](O)[C@@H](C)[C@H](OC(C)=O)[C@@H]1C [Rifaximin, (2S,16Z,18E,20S,21S,22R,23R,24R,25S,26S,27S,28E)-5,6,21,23,25-pentahydroxy-27-methoxy-2,4,11,16,20,22,24,26-octamethyl-2,7-(epoxypentadeca-[1,11,13]trienimino)benzofuro[4,5-e]pyrido[1,2-a]-benzimida-zole-1,15(2H)-dione,25-acetate]
